Measurements from ChEMBL document CHEMBL3885881, “DrugMatrix”.

Species: Rattus norvegicus
Test: DrugMatrix - Regimen: Daily Repeat
Type: toxicity, organism-based, Sprague-Dawley
Design: regimen Daily Repeat, gender Male, age 6-8 weeks
Conditions: in vivo, po, route oral GAVAGE, vehicle .5 % CMC; for ABSOLUTE BASOPHIL / ABSOLUTE EOSINOPHIL / ABSOLUTE LYMPHOCYTE / ABSOLUTE MONOCYTE / ABSOLUTE SEGMENTED NEUTROPHIL / BASOPHIL / EOSINOPHIL / ERYTHROCYTE COUNT / HEMATOCRIT / HEMOGLOBIN / LEUKOCYTE COUNT / LYMPHOCYTE / MEAN CORPUSCULAR HEMOGLOBIN / MEAN CORPUSCULAR HEMOGLOBIN CONCENTRATION / MEAN CORPUSCULAR VOLUME / MONOCYTE / NEUTROPHIL / NUCLEATED RED BLOOD CELLS / PLATELET COUNT: tissue Blood; for ALANINE AMINOTRANSFERASE / ALBUMIN / ALKALINE PHOSPHATASE / ASPARTATE AMINOTRANSFERASE / BLOOD UREA NITROGEN / CARBON DIOXIDE / CHLORIDE / CHOLESTEROL / CREATINE PHOSPHOKINASE / CREATININE / GLUCOSE / LACTATE DEHYDROGENASE / LIPASE / PHOSPHORUS / POTASSIUM / SODIUM / TOTAL BILIRUBIN / TOTAL PROTEIN / URIC ACID: tissue Plasma
[1] = 0.0001 mg/kg, 72 h, dose level Low, time 3 day
[2] = 0.0001 mg/kg, 120 h, dose level Low, time 5 day
[3] = […], 72 h, dose 0.043 mg/Kg, dose level High, time 3 day
[4] = […], 120 h, dose 0.043 mg/Kg, dose level High, time 5 day

SMILES: C=C1/C(=C\C=C2/CCC[C@]3(C)[C@@H]([C@H](C)CCCC(C)C)CC[C@@H]23)C[C@@H](O)C[C@@H]1O [ALFACALCIDOL]
- ABSOLUTE BASOPHIL [1]: 0 CELLS/uL
- ABSOLUTE EOSINOPHIL [1]: 140 CELLS/uL
- ABSOLUTE LYMPHOCYTE [1]: 12178.67 CELLS/uL
- ABSOLUTE MONOCYTE [1]: 352 CELLS/uL
- ABSOLUTE SEGMENTED NEUTROPHIL [1]: 1262.67 CELLS/uL
- BASOPHIL [1]: 0%
- EOSINOPHIL [1]: 1%
- ERYTHROCYTE COUNT [1]: 6.05 x10E6/uL
- HEMATOCRIT [1]: 38.07%
- HEMOGLOBIN [1]: 14.23 G/DL
- LEUKOCYTE COUNT [1]: 13.93 x10E3/uL
- LYMPHOCYTE [1]: 87.33%
- MEAN CORPUSCULAR HEMOGLOBIN [1]: 23.6 pg
- MEAN CORPUSCULAR HEMOGLOBIN CONCENTRATION [1]: 37.4 G/DL
- MEAN CORPUSCULAR VOLUME [1]: 63.03 fL
- MONOCYTE [1]: 2.67%
- NEUTROPHIL [1]: 9%
- NUCLEATED RED BLOOD CELLS [1]: 0.33 /100WBC
- PLATELET COUNT [1]: 1202.33 x10E3/uL
- ALANINE AMINOTRANSFERASE [1]: 48.33 u/L
- ALBUMIN [1]: 4.17 G/DL
- ALKALINE PHOSPHATASE [1]: 299.33 u/L
- ASPARTATE AMINOTRANSFERASE [1]: 81 u/L
- BLOOD UREA NITROGEN [1]: 17 mg/dL
- CARBON DIOXIDE [1]: 24.67 mmol/L
- CHLORIDE [1]: 103.5 MEQ/L
- CHOLESTEROL [1]: 65 mg/dL
- CREATINE PHOSPHOKINASE [1]: 332 u/L
- CREATININE [1]: 0.2 mg/dL
- GLUCOSE [1]: 178.67 mg/dL
- LACTATE DEHYDROGENASE [1]: 142.33 u/L
- LIPASE [1]: 9.33 u/L
- PHOSPHORUS [1]: 12.17 mg/dL
- POTASSIUM [1]: 6.03 MEQ/L
- SODIUM [1]: 146.55 MEQ/L
- TOTAL BILIRUBIN [1]: 0.23 mg/dL
- TOTAL PROTEIN [1]: 5.83 G/DL
- URIC ACID [1]: 1.77 mg/dL
- ABSOLUTE BASOPHIL [2]: 0 CELLS/uL
- ABSOLUTE EOSINOPHIL [2]: 164 CELLS/uL
- ABSOLUTE LYMPHOCYTE [2]: 10288.67 CELLS/uL
- ABSOLUTE MONOCYTE [2]: 193 CELLS/uL
- ABSOLUTE SEGMENTED NEUTROPHIL [2]: 1121 CELLS/uL
- BASOPHIL [2]: 0%
- EOSINOPHIL [2]: 1.33%
- ERYTHROCYTE COUNT [2]: 5.95 x10E6/uL
- HEMATOCRIT [2]: 36.97%
- HEMOGLOBIN [2]: 13.63 G/DL
- LEUKOCYTE COUNT [2]: 11.77 x10E3/uL
- LYMPHOCYTE [2]: 87.33%
- MEAN CORPUSCULAR HEMOGLOBIN [2]: 22.9 pg
- MEAN CORPUSCULAR HEMOGLOBIN CONCENTRATION [2]: 36.9 G/DL
- MEAN CORPUSCULAR VOLUME [2]: 62.07 fL
- MONOCYTE [2]: 1.67%
- NEUTROPHIL [2]: 9.67%
- NUCLEATED RED BLOOD CELLS [2]: 0 /100WBC
- PLATELET COUNT [2]: 1179 x10E3/uL
- ALANINE AMINOTRANSFERASE [2]: 40.33 u/L
- ALBUMIN [2]: 4.23 G/DL
- ALKALINE PHOSPHATASE [2]: 369.33 u/L
- ASPARTATE AMINOTRANSFERASE [2]: 94.33 u/L
- BLOOD UREA NITROGEN [2]: 21 mg/dL
- CARBON DIOXIDE [2]: 26.67 mmol/L
- CHLORIDE [2]: 105 MEQ/L
- CHOLESTEROL [2]: 57.33 mg/dL
- CREATINE PHOSPHOKINASE [2]: 399 u/L
- CREATININE [2]: 0.21 mg/dL
- GLUCOSE [2]: 158.33 mg/dL
- LACTATE DEHYDROGENASE [2]: 716.33 u/L
- LIPASE [2]: 8.33 u/L
- PHOSPHORUS [2]: 11.8 mg/dL
- POTASSIUM [2]: 5.72 MEQ/L
- SODIUM [2]: 145.1 MEQ/L
- TOTAL BILIRUBIN [2]: 0.13 mg/dL
- TOTAL PROTEIN [2]: 5.9 G/DL
- URIC ACID [2]: 1.3 mg/dL
- ABSOLUTE BASOPHIL [3]: 0 CELLS/uL
- ABSOLUTE EOSINOPHIL [3]: 333 CELLS/uL
- ABSOLUTE LYMPHOCYTE [3]: 10082 CELLS/uL
- ABSOLUTE MONOCYTE [3]: 537.33 CELLS/uL
- ABSOLUTE SEGMENTED NEUTROPHIL [3]: 2481 CELLS/uL
- BASOPHIL [3]: 0%
- EOSINOPHIL [3]: 2.33%
- ERYTHROCYTE COUNT [3]: 6 x10E6/uL
- HEMATOCRIT [3]: 36.53%
- HEMOGLOBIN [3]: 13.9 G/DL
- LEUKOCYTE COUNT [3]: 13.43 x10E3/uL
- LYMPHOCYTE [3]: 74%
- MEAN CORPUSCULAR HEMOGLOBIN [3]: 23.2 pg
- MEAN CORPUSCULAR HEMOGLOBIN CONCENTRATION [3]: 38.07 G/DL
- MEAN CORPUSCULAR VOLUME [3]: 60.97 fL
- MONOCYTE [3]: 4%
- NEUTROPHIL [3]: 19.67%
- NUCLEATED RED BLOOD CELLS [3]: 0.33 /100WBC
- PLATELET COUNT [3]: 1182 x10E3/uL
- ALANINE AMINOTRANSFERASE [3]: 54.33 u/L
- ALBUMIN [3]: 3.93 G/DL
- ALKALINE PHOSPHATASE [3]: 234.67 u/L
- ASPARTATE AMINOTRANSFERASE [3]: 99 u/L
- BLOOD UREA NITROGEN [3]: 27.67 mg/dL
- CARBON DIOXIDE [3]: 26.33 mmol/L
- CHLORIDE [3]: 99.67 MEQ/L
- CHOLESTEROL [3]: 75.33 mg/dL
- CREATINE PHOSPHOKINASE [3]: 379.67 u/L
- CREATININE [3]: 0.33 mg/dL
- GLUCOSE [3]: 174.33 mg/dL
- LACTATE DEHYDROGENASE [3]: 344 u/L
- LIPASE [3]: 8.33 u/L
- PHOSPHORUS [3]: 12.9 mg/dL
- POTASSIUM [3]: 5.6 MEQ/L
- SODIUM [3]: 142.27 MEQ/L
- TOTAL BILIRUBIN [3]: 0.2 mg/dL
- TOTAL PROTEIN [3]: 5.87 G/DL
- URIC ACID [3]: 1.57 mg/dL
- ABSOLUTE BASOPHIL [4]: 0 CELLS/uL
- ABSOLUTE EOSINOPHIL [4]: 110 CELLS/uL
- ABSOLUTE LYMPHOCYTE [4]: 15770.33 CELLS/uL
- ABSOLUTE MONOCYTE [4]: 383.67 CELLS/uL
- ABSOLUTE SEGMENTED NEUTROPHIL [4]: 2702.67 CELLS/uL
- BASOPHIL [4]: 0%
- EOSINOPHIL [4]: 1%
- ERYTHROCYTE COUNT [4]: 6.37 x10E6/uL
- HEMATOCRIT [4]: 38.77%
- HEMOGLOBIN [4]: 14.5 G/DL
- LEUKOCYTE COUNT [4]: 18.97 x10E3/uL
- LYMPHOCYTE [4]: 83.33%
- MEAN CORPUSCULAR HEMOGLOBIN [4]: 22.77 pg
- MEAN CORPUSCULAR HEMOGLOBIN CONCENTRATION [4]: 37.43 G/DL
- MEAN CORPUSCULAR VOLUME [4]: 60.83 fL
- MONOCYTE [4]: 2%
- NEUTROPHIL [4]: 13.67%
- NUCLEATED RED BLOOD CELLS [4]: 0 /100WBC
- PLATELET COUNT [4]: 1065.33 x10E3/uL
- ALANINE AMINOTRANSFERASE [4]: 53.67 u/L
- ALBUMIN [4]: 4.5 G/DL
- ALKALINE PHOSPHATASE [4]: 245.67 u/L
- ASPARTATE AMINOTRANSFERASE [4]: 109.33 u/L
- BLOOD UREA NITROGEN [4]: 18 mg/dL
- CARBON DIOXIDE [4]: 27 mmol/L
- CHLORIDE [4]: 101.67 MEQ/L
- CHOLESTEROL [4]: 74.33 mg/dL
- CREATINE PHOSPHOKINASE [4]: 756 u/L
- CREATININE [4]: 0.12 mg/dL
- GLUCOSE [4]: 155.33 mg/dL
- LACTATE DEHYDROGENASE [4]: 946.67 u/L
- LIPASE [4]: 8.33 u/L
- PHOSPHORUS [4]: 12.47 mg/dL
- POTASSIUM [4]: 4.95 MEQ/L
- SODIUM [4]: 144.83 MEQ/L
- TOTAL BILIRUBIN [4]: 0.1 mg/dL
- TOTAL PROTEIN [4]: 6.33 G/DL
- URIC ACID [4]: 1.5 mg/dL
